Test results reported in PubChem BioAssay (NCI).
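Growth conditions: 96-well plates. Treatment: test compound, 48 hours, 5 concentrations. Analysis: linear interpolation between bracketing concentrations; unreached endpoints set to highest concentration. GI50 marks 50% less growth. Definition used: TGI = concentration required for complete inhibition of growth.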

Key:
Test in all cases: inhibition of tumour cell growth, NCI panel, 48 h
NCI-H23 lung = test system: NCI-H23 lung
SF-268 CNS = test system: SF-268 CNS
A498 renal = test system: A498 renal
UACC-257 melanoma = test system: UACC-257 melanoma
NCI/ADR-RES ovarian = test system: NCI/ADR-RES ovarian
SW-620 colon = test system: SW-620 colon
SK-MEL-28 melanoma = test system: SK-MEL-28 melanoma
MALME-3M melanoma = test system: MALME-3M melanoma
SNB-75 CNS = test system: SNB-75 CNS
K-562 leukemia = test system: K-562 leukemia

Row | Structure (SMILES) | GI50 (NCI-H23 lung) | TGI (NCI-H23 lung) | GI50 (SF-268 CNS) | TGI (SF-268 CNS) | GI50 (A498 renal) | TGI (A498 renal) | GI50 (UACC-257 melanoma) | TGI (UACC-257 melanoma) | GI50 (NCI/ADR-RES ovarian) | TGI (NCI/ADR-RES ovarian) | GI50 (SW-620 colon) | TGI (SW-620 colon) | GI50 (SK-MEL-28 melanoma) | TGI (SK-MEL-28 melanoma) | GI50 (MALME-3M melanoma) | TGI (MALME-3M melanoma) | GI50 (SNB-75 CNS) | TGI (SNB-75 CNS) | GI50 (K-562 leukemia) | TGI (K-562 leukemia)
1 | O=C(COc1cccc(/C=C2\CSc3ccccc3C2=O)c1)Nc1nccs1 | 1.85 µM | 8.79 µM | 1.76 µM | 3.35 µM | 15.3 µM | 28.9 µM | 3.02 µM | 9.77 µM | 3.2 µM | 11 µM | 1.95 µM | 4.52 µM | 3.75 µM | 12.4 µM | 1.54 µM | 3.11 µM | 1.13 µM | 12.5 µM | 2.79 µM | > 100 µM
2 | O=[N+]([O-])c1cccc(C2CC(c3ccccc3)=Nc3ccccc3S2)c1 (stereo not given) | 17.9 µM | 61.8 µM | 13.1 µM | 26.9 µM | 14.7 µM | 95.8 µM | 21.6 µM | 61 µM | 22.1 µM | > 100 µM | 3.03 µM | 12 µM | 17.4 µM | 34.2 µM | 17.9 µM | 46.1 µM | 9.53 µM | > 100 µM | 3.76 µM | > 100 µM
3 | COc1cc2cc(Oc3ccc(NC(=O)Nc4ccc(Cl)c(Cl)c4)cc3)c(C)nc2cc1OC | 3.36 µM | 15.9 µM | 8.23 µM | > 100 µM | 1.95 µM | 7.93 µM | 2.31 µM | 6.28 µM | 2.6 µM | 16.9 µM | 4.24 µM | 15.6 µM | 3.77 µM | 14.7 µM | 3.02 µM | 7.72 µM | 2.33 µM | 8.28 µM | 3.33 µM | > 100 µM
4 | O=c1[nH]cnc2c1nnn2CCCCCCCCCCCCn1nnc2c(=O)[nH]cnc21 |  | 39.2 µM |  | 79.9 µM |  | 53.6 µM |  | > 100 µM |  | > 100 µM |  | > 100 µM |  | > 100 µM |  | > 100 µM |  | > 57.2 µM |  | > 100 µM
5 | NC(=S)c1c(N)n(C2OC(CO)C(O)C2O)c2ncnc(N)c12 (stereo not given) | 0.258 µM | 1.14 µM | 0.425 µM | 4.52 µM | 0.211 µM | 0.522 µM | 0.729 µM | 4.8 µM | 0.276 µM | 1.27 µM | 0.177 µM | 0.836 µM | 0.295 µM | 1.81 µM | 0.426 µM | 2.23 µM | 0.885 µM | 4.17 µM | 0.0622 µM | 0.494 µM
6 | CC(=O)c1c(C)[nH]c(-c2nc3ccc(N4CCN(C)CC4)cc3[nH]2)c1-c1ccccc1 | 3.02 µM | 39.3 µM | 5.24 µM | 39.6 µM | 0.522 µM | 4.79 µM | 1.46 µM | 17.9 µM | 2.48 µM | > 100 µM | 3.82 µM | 24.8 µM | 3.38 µM | 19.9 µM | 0.961 µM | 12.7 µM | 0.0416 µM | 0.937 µM | 0.779 µM | > 100 µM
7 | CN1C(=O)C2(c3ccccc31)N(c1ccc(Cl)cc1)C(=O)C2(c1ccccc1)c1ccccc1 (stereo not given) | 64.7 µM | > 100 µM | > 100 µM | > 100 µM | 34.3 µM | > 100 µM | 47.6 µM | > 100 µM | 34.7 µM | > 100 µM | > 100 µM | > 100 µM | > 100 µM | > 100 µM | 50.8 µM | > 100 µM | 17.8 µM | 90.5 µM | 4.28 µM | 95.3 µM
8 | N#CC1c2ccccc2C=CN1C(=O)N(c1ccccc1)c1ccccc1 (stereo not given) | 4.09 µM | 19.3 µM | 4.31 µM | 15.4 µM | 7.14 µM | 24.4 µM | 2.29 µM | 6.2 µM | 5.52 µM | 34 µM | 2.27 µM | 5.3 µM | 2.43 µM | 5.84 µM | 1.61 µM | 3.55 µM | 6.3 µM | 21 µM | 3.06 µM | > 100 µM
9 | Cn1cc(C2=C(c3cn(CCCCCSC(=N)N)c4ccccc34)C(=O)NC2=O)c2ccccc21 | 3.5 µM | 7.56 µM | 3.86 µM | 7.8 µM | 3.65 µM | 6.97 µM | 4.01 µM | 7.47 µM | 8.18 µM | 21 µM | 2.96 µM | 6.54 µM | 3.55 µM | 7.17 µM | 4.25 µM | 8.08 µM | 1.01 µM | 4.36 µM | 1.49 µM | 5.31 µM
